Here are results for 1 compound from US10004755B2 (priority 2014, dated 2018).

The conditions of data set [1]: mouse, in vivo.
For data set [2] the following is noted: mouse, in vivo. This is another data set of the same source.

On to `CCCCNc1ncc2c(-c3ccc(CN4CCN(C)CC4)cc3)cn([C@H]3CC[C@H](O)CC3)c2n1` [UNC2025A], for which the oral bioavailability result in data set [1] is “orally bioavailable”. Also, the “MTD (predicted dose in chow)” value in data set [2] is 120 mg/kg.
